Results: patent publication US9549988B2, “Pharmaceutical compounds targeted by MIF affinity-tethered moieties” (RJS Biologics LLC, priority 2013, dated 2017)
Where two headings read alike, the source gives them in different places.

Key:
[1] = tested on: Human tumor cell lines of a cancer screening panel; experiment: Sulforhodamine B (SRB) cellular proliferation assay, cancer screening panel; format: cell-based; conditions: 10 μM
Procedure: This example illustrates several in vitro experiments in predictive models of cancer to show the potential therapeutic utility of the disclosed compounds. Human tumor cell lines of a cancer screening panel were grown in RPMI 1640 medium containing 5% fetal bovine serum and 2 mM L-glutamine. Cells were inoculated into 96 well microtiter plates in 100 μL at plating densities ranging from 5,000 to 40,000 cells/well depending on the doubling time of individual cell lines. After cell inoculation, the microtiter plates were incubated at 37° C., 5% CO2, 95% air and 100% relative humidity for 24 h prior to addition of experimental drugs.
After 24 h, two plates of each cell line were fixed in situ with trichloroacetic acid (TCA), to represent a measurement of the cell population for each cell line at the time of drug addition (T=zero). Experimental drugs were solubilized in dimethyl sulfoxide at 400-fold the desired final maximum test concentration and stored frozen prior to use. […]
Following drug addition, the plates were incubated for an additional 48 h at 37° C., 5% CO2, 95% air, and 100% relative humidity. […] Bound stain was subsequently solubilized with 10 mM trizma base, and the absorbance was read on an automated plate reader at a wavelength of 515 nm. […] Using the seven absorbance measurements [time zero, (T=zero), control growth, (C), and test growth in the presence of drug at the five concentration levels (Ti)], the percentage growth was calculated at each of the drug concentrations levels.
Percentage growth inhibition was calculated as: [(Ti−Tzero)/(C−Tzero)]×100 for concentrations for which Ti>/=Tzero [(Ti−Tzero)/Tzero]×100 for concentrations for which Ti<Tzero. Three dose response parameters were calculated for each experimental agent. […] The drug concentration resulting in total growth inhibition (TGI) was calculated from Ti=Tzero. […] The same procedures were used to create FIGS. 19 and 20 except a single 10 μM data point was recorded for each cell line.

[2] = tested on: Normal Human Adult Dermal Fibroblasts (ATCC PCS-201-012); experiment: WST-8 cellular proliferation assay, primary dermal fibroblasts; format: cell-based; conditions: for IC50: read-out: IC50 1° Fibroblasts, Table 4, EGFRi derivatives
Procedure: (§1) Assays were performed according to the manufactures instructions.

[3] = tested on: large cell lung cancer cell lines (NCI-H460); experiment: WST-8 cellular proliferation assay, NCI-H460 lung cancer cells; format: cell-based; conditions: for IC50: Table 4, EGFRi derivatives, WST-8, read-out: IC50 Cancer Cells ATCC NCI-H460; for Selectivity: Table 4, 1° fibroblasts versus NCI-H460 cancer cells
[4] = tested on: large cell immunoblastic lymphoma cell lines (ATCC SR); experiment: WST-8 cellular proliferation assay, ATCC SR lymphoma cells; format: cell-based; conditions: Table 2; 1° fibroblasts versus ATCC SR cancer cells
Procedure: as §1

[5] = tested on: THP-1 leukemia cells mixed with non-cancerous PBMC cells; experiment: Flow cytometry drug uptake in mixed THP-1 / PBMC population; format: cell-based, human; conditions: FIG. 21; THP-1 added to PBMC; 0.8 μM; 2-2.5 h; PE channel
Procedure: This example illustrates an in vitro experiment using predictive models of cancer to show the cellular specificity and potential therapeutic utility of the inventive compounds. The human leukemic cell line THP-1 was grown in RPMI 1640 medium with penicillin, streptomycin, and containing 25 mM Hepes, 0.05 mM 2-mercaptoethanol, 10% fetal bovine serum and 2 mM L-glutamine. Cells washed 2× with Gibco Life Sciences (Grand Island, N.Y.) AIM-V serum free medium and then were inoculated into 96 well microtiter plates in 100 μL at plating densities ranging from 25,000 to 100,000 cells/well. Five to ten million frozen peripheral blood mononuclear cells (PBMCs) (Astarte Biologics, LLC. (Redmond, Wash.)) in a solution of 10% DMSO, 2% human serum albumin in phosphate buffered saline were thawed and immediately washed in AIM-V media. An approximately equal number of these cells (25,000 to 100,000 cells/well) were added to the experimental plate. Doxorubicin was added to a final concentration of 0.8 μM. The microtiter plates were incubated at 37° C., 5% CO2, 95% air and 100% relative humidity for 2-2.5 h then drug uptake was quantified by flow cytometry for example using a BD FACSCanto II (San Jose, Calif.). Doxorubicin uptake was evaluated in the PE channel. Individual cell populations were identified by size, shape and through the use of dye labeled antibodies.

THP-1 leukemia cells = experiment: Flow cytometry uptake by THP-1 cells in presence of ISO-1; format: cell-based, human; conditions: FIG. 22, 2 hrs at 37° C.
Procedure: This example illustrates an in vitro experiment using predictive models of cancer to show the cellular specificity and potential therapeutic utility of the inventive compounds. The human leukemic cell line THP-1 was grown AIM-V serum free medium Gibco Life Sciences (Grand Island, N.Y.). […] Then the washed THP-1 cells were added to the drug dilutions to start the experiment ˜75,000 cells per well. Test compounds were incubated 2 hrs at 37° C., then the plate was read by flow cytometry BD Canto 2 (80 μl˜25,000 cells). A population of Single Round “average” cells was selected by FSC and SSC—constituting %70 of the total cell population examined. The amount of doxorubicin uptake was evaluated for this population in the PE channel.

[6] = FIG. 20, 14 diverse cancer cell lines

SMILES: Cc1ccc2oc(=O)n(Cc3ccc(OCC(=O)NCCC[C@@H]4O[C@@H]5O[C@@]6(C)CC[C@H]7[C@H](C)CC[C@@H]([C@H]4C)[C@@]57OO6)c(O)c3)c2c1 [compound 11, 2-(2-hydroxy-4-((5-methyl-2-oxobenzo[d]oxazol-3(2H)-yl)methyl)phenoxy)-N-(3-((3R,5aS,6R,8aS,9R,10S,12R,12aR)-3,6,9-trimethyldecahydro-12H-3,12-epoxy[1,2]dioxepino[4,3-i]isochromen-10-yl)propyl)acetamide]
- inhibition of cancer cell growth (average % inhibition) [1, 6]: substantial anti-cancer activity

SMILES: C#Cc1cccc(Nc2ncnc3cc(OCCOC)c(OCCOC)cc23)c1 [Tarceva ® (Erlotinib), Erlotinib]
- IC50 ([2]; Homo sapiens, Fibroblast): 4.7 µM
- IC50 ([3]; Homo sapiens, NCI-H460): 12.6 µM
- Selectivity [3]: 0.37

SMILES: COc1cc2ncnc(Nc3ccc(F)c(Cl)c3)c2cc1NC(=O)/C=C/CN1CCCCC1 [Docomitinib (PF-00299804), Docomitinib]
- IC50 [2]: 0.89 µM
- IC50 [3]: 10.6 µM
- Selectivity [3]: 0.08

SMILES: COc1cc2c(Nc3ccc(F)c(Cl)c3)ncnc2cc1OCCOCCNC(=O)COc1ccc(Cn2c(=O)oc3ccc(C)cc32)cc1O [RJS012_1]
- IC50 ([2]; Homo sapiens, Fibroblast): 6.7 µM
- IC50 ([3]; Homo sapiens, NCI-H460): 3.6 µM
- Selectivity [3]: 1.9

SMILES: Cc1ccc2oc(=O)n(Cc3ccc(OCC(=O)O)c(O)c3)c2c1 [compound 7, (2-hydroxy-4-[(5-methyl-2-oxo-1,3-benzoxazol-3(2H)-yl)methyl]phenoxy)acetic acid]
- inhibition of cancer cell growth (average % inhibition) ([1]; FIG. 19, 17 cancer cell lines): little if any potency
- inhibition of cancer cell growth (average % inhibition) [1, 6]: little potency

SMILES: COc1cccc2c1C(=O)c1c(O)c3c(c(O)c1C2=O)C[C@@](O)(C(=O)CO)C[C@@H]3O[C@H]1C[C@H](N)[C@H](O)[C@H](C)O1 [Doxorubicin]
- Selectivity [4]: 26
- IC50 1° Fibroblasts ([2]; Table 2, Doxorubicin derivatives): 0.185 ± 0.5 µM
- preferential cellular uptake by cancer cells over non-cancerous cells [5]: little preference for the cancer cell line
- inhibition of cellular uptake by ISO-1 (THP-1 leukemia cells): not inhibited
